Measured values: patent publication US20060142356A1, “Novel therapeutic method and compositions for topical administration” (priority 2003, published 2006)
Like-named read-outs stand apart in the source and are kept apart here.

Columns and labels:
[1] = test system: fasting plasma glucose in patients with type II diabetes; conditions: cited from earlier work
[2] = Peak plasma concentration after oral dosing of farglitazar; type: in vivo, human
Excerpt: Z is expressed in units of ng/ml and is the target local free (i.e. unbound) concentration that is expected to have a therapeutic effect against the skin condition. In the case of PPAR gamma agonists, Z should correspond to the peak plasma free drug concentration generated by dosing these drugs orally to treat effectively Type II diabetes mellitus. The appropriate value of Z may be determined experimentally in vivo by conventional known means using standard protocols.
The value Z for farglitazar is 0.31 ng/ml [Peak plasma concentration for a 5 mg dose is about 157 ng/ml; 0.31 is 157*(100-99.8)/100].

Plasma bound fraction = type: in vitro ADME
Excerpt: PBF is the plasma bound fraction. Plasma bound fraction may be determined experimentally in vitro by conventional known means using standard tests (preferably a method employing equilibrium dialysis).

[3] = Rate of clearance of the drug substance (total systemic clearance); type: in vivo; conditions: human, plasma; in adults
Excerpt: C is expressed in units of ml/hr and is the rate of clearance of the drug substance. Clearance may be determined experimentally in vivo by conventional known means using standard tests. For example it can be determined from the plasma concentration in response to a defined input of drug using the equation given below: Clearance (ml/hr)=Input rate (ng/hr)/Total plasma concentration (ng/ml)

Compound	Time to achieve a reduction of fasting plasma glucose by 2 mmol/l ([1]; 2 mg b.i.d. dosage regimen)	Time to achieve a reduction of fasting plasma glucose by 2 mmol/l ([1]; 4 mg b.i.d. dosage regimen)	Peak plasma concentration ([2]; 5 mg dose, total drug)	Z, target local free (unbound) concentration = peak plasma free drug concentration ([2]; 157*(100-99.8)/100, 5 mg dose) [ng/mL]	Plasma bound fraction (Plasma bound fraction) [%]	clearance [3] [mL/min]
CN(CCOc1ccc(CC2SC(=O)NC2=O)cc1)c1ccccn1 (stereo not drawn) [rosiglitazone, 5-[4-[2-(N-methyl-N-(2-pyridyl)amino)ethoxy]benzyl]thiazolidine-2,4-dione]	about 8 weeks	about 4 weeks				
Cc1oc(-c2ccccc2)nc1CCOc1ccc(C[C@H](Nc2ccccc2C(=O)c2ccccc2)C(=O)O)cc1 [farglitazar, N-(2-benzoylphenyl)-O-[2-(5-methyl-2-phenyl-4-oxazolyl)ethyl]-L-tyrosine]			about 157 ng/ml	0.31	99.8	250
